Measured values published in PMC12673918, “Design, Synthesis, and Selective Antiproliferative Activity of Indolizine Derivatives as Microtubule Destabilizers” (Archiv Der Pharmazie, 2025).
Where two headings read alike, the source gives them in different places.

Key:
Assay type in all cases: cell-based
[1] = tested on: OHMF (non‐tumoral oral fibroblast); assay: Resazurin cell viability assay, OHMF fibroblasts; settings: Homo sapiens, 72 h, n = 3
Description: The tongue squamous cell carcinoma cell line CAL‐27 (ATCC CRL‐2095), breast carcinoma BT‐20 (ATCC HTB‐19), gastric carcinoma HGC‐27 (BCRJ Code 0310), and normal oral fibroblast OHMF (culture of fibroblasts derived from human oral healthy mucosa, approved by the Research Ethics Committee of the University of São Paulo, Campus of Ribeirão Preto, Brazil (with protocol number 049) were cultured in DMEM medium (DMEM, Sigma‐Aldrich, St. Louis, MO, USA) supplemented with 10% fetal bovine serum and a solution of penicillin (100 U/mL) and streptomycin (100 μg/mL). The cultures were maintained in a humidified incubator with 5% CO₂ at 37°C.
Cell viability was analyzed using the resazurin assay. For this, cells were seeded in 96‐well plates (1 × 10^3 cells per well) and incubated at 37°C with 5% CO₂ overnight for cell adhesion. Subsequently, the cells were treated with different compounds (0–50 µM) for 72 h. After treatment, the medium was replaced with phenol‐free DMEM medium (Sigma‐Aldrich) containing resazurin at a concentration of 44 µM (Sigma‐Aldrich). After incubation for 4 h at 37°C, fluorescence detection was performed (excitation 530/25 nm, emission 590/35 nm) using a microplate fluorimeter (Synergy 2, Biotek). Initial cell growth inhibition assays were performed in triplicate or quadruplicate, while IC50 determinations were conducted in triplicate. Data were plotted, and IC₅₀ values were determined by nonlinear regression using GraphPad Prism software 9.0.

[2] = tested on: BT‐20 (breast carcinoma); assay: Resazurin cell viability assay, BT‐20; settings: Homo sapiens, BT-20; for inhibition at 50 µM: read-out: % Cellular growth inhibition (at 50 µM) BT‐20
In short: (§1)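 Cells in DMEM/10% FBS, 1 × 10^3 per well, adhered overnight, then treated with compounds (0–50 µM) for 72 h. Viability read as fluorescence (ex 530, em 590 nm) after 4 h with 44 µM resazurin. % growth inhibition at 50 µM and IC50 by nonlinear regression, triplicates.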

[3] = tested on: HGC‐27 (gastric carcinoma); assay: Resazurin cell viability assay, HGC‐27; settings: for inhibition at 50 µM / IC50: Homo sapiens, HGC-27; for inhibition at 50 µM: read-out: % Cellular growth inhibition (at 50 µM) HGC‐27; for decrease in IC50 relative to 7f (HIT): HGC‐27
In short: as §1

[4] = biological target: T1, human P2X7 receptor (Homo sapiens, UniProt Q99572); assay: YO‐PRO‐1 dye uptake assay for the P2X7 receptor; settings: for inhibition at 10 µM: P2X7, read-out: % Inhibition of P2X7R at 10 µM compounds’ concentration; for off‐target activity against the P2X7 receptor: 10 μM
T1 construct: host or cells: HEK-293
T1 sequence (Q99572 1-595): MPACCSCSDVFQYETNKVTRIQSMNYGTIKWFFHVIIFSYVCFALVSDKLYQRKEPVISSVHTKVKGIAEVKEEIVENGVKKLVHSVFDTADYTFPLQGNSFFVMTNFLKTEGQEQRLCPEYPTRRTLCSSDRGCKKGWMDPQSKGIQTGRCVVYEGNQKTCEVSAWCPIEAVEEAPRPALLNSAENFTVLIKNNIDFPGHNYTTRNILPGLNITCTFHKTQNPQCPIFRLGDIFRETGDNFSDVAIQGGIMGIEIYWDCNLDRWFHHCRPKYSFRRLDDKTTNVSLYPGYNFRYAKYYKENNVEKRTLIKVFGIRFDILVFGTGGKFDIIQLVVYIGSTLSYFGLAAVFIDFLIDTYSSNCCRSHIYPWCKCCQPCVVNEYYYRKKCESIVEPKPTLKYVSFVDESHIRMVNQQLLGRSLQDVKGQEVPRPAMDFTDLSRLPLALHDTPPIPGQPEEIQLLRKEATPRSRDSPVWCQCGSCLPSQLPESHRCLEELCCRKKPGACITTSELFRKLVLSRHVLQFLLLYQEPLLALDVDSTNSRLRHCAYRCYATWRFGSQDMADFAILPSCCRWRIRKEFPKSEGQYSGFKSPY
Description: HEK‐293 cell lines stably expressing human P2X7 receptor (hP2X7R‐HEK‐293, B'SYS GmbH, Witterswil, Switzerland) were maintained in a 50/50 mix of Dulbecco's Modified Eagle Medium and F12 medium (DMEM/F12) supplemented with 9% (v/v) FCS, 1% (v/v) Penicillin/Streptomycin (10000 I.U./mL, 10 mg/mL in 0.9% NaCl) and G418 (100 µg/mL) at 37°C and 5% CO2. Cells were subcultured in cell culture 75 cm^2 flasks and split every 2‐4 days (1:3; 1:6; 1:10) once confluent.
HEK‐293 cell lines stably expressing human P2X7 receptor were seeded into black‐walled Nunc 96‐well optical bottom plates (Thermo Fisher Scientific) at 2.0–4.0 × 10^4 cells/well and incubated at 37°C for 24–48 h. After removing the culture medium, cells were washed with 100 µL wash buffer (280 mM Sucrose; 5.6 mM KCl; 0.5 mM CaCl2; 10 mM D‐Glucose; 10 mM HEPES; 5 mM N‐Methyl‐D‐glucamine (pH 7.4)). Then, 50 µL assay buffer (280 mM Sucrose; 6.4 mM KCl, 10 mM D‐Glucose; 10 mM HEPES; 5.0 mM N‐Methyl‐D‐glucamine (pH 7.4)) and 50 µL of antagonist dilutions (10^–5–10^–9 M) in assay buffer were added, and the cells were incubated at 37°C for 30 min. […] Finally, the uptake of YO‐PRO‐1 dye was recorded in a 9‐point‐well scan by following the fluorescence change using a FlexStation 3 Multi‐Mode Microplate Reader (Molecular Devices, San Jose, CA, USA, Software SoftMax7 Pro, endpoint protocol, well scan with reading pattern “fill scan”, λ ex = 485 nm, λ em = 535 nm). To determine the concentration‐dependent uptake inhibition by antagonists, the YO‐PRO‐1 uptake, expressed as RFU, was plotted against the concentrations of the compounds.

[5] = tested on: GNP15; assay: Resazurin cellular growth inhibition, GNP15; settings: 72 hours, triplicate; read-out: IC50 (nM, Cellular growth inhibition) GNP15 (supplement)
Description: ^b IC50 values were determined using the same resazurin-based assay, with fluorescence measurements performed after 72 hours of treatment. These experiments were carried out in triplicate.

[6] = tested on: CAL‐27 (oral carcinoma); assay: Resazurin cell viability assay, CAL‐27; settings: Homo sapiens, CAL-27; for inhibition at 50 µM: read-out: % Cellular growth inhibition (at 50 µM) CAL‐27
In short: as §1

[7] = 72 h, mean ± SD, n = 3, read-out: IC50 (nM) BT‐20
[8] = 72 hours, triplicate, read-out: IC50 (nM, Cellular growth inhibition) BT-20 (supplement)
[9] = 72 h, mean ± SD, n = 3, read-out: IC50 (nM) HGC‐27
[10] = 72 h, mean ± SD, n = 3, read-out: IC50 (nM) CAL‐27
[11] = 72 hours, triplicate, read-out: IC50 (nM, Cellular growth inhibition) CAL-27 (supplement)
[12] = 72 hours, triplicate, read-out: IC50 (nM, Cellular growth inhibition) HGC-27 (supplement)

| Compound | IC50 [1] [nM] | inhibition at 50 µM ([2]; 72 h, mean ± SD, n = 3) [%] | IC50 [2, 7] [nM] | IC50 [2, 8] [nM] | inhibition at 50 µM ([3]; 72 h, mean ± SD, n = 3) [%] | IC50 [3, 9] [nM] | inhibition at 10 µM [4] [%] | IC50 [5] [nM] | inhibition at 50 µM ([6]; 72 h, mean ± SD, n = 3) [%] | IC50 [6, 10] [nM] | IC50 [6, 11] [nM] | IC50 [3, 12] [nM] | decrease in IC50 relative to 7f (HIT) [3] | off‐target activity against the P2X7 receptor [4] |
| --- | --- | --- | --- | --- | --- | --- | --- | --- | --- | --- | --- | --- | --- | --- |
| COc1ccc2c(C(=O)c3cc(OC)c(OC)c(OC)c3)c(-c3ccc(C)cc3)cn2c1 [Compound 8j, [6‐methoxy‐2‐(p ‐tolyl)indolizin‐1‐yl](3,4,5‐trimethoxyphenyl)methanone] | > 50000 | 61 ± 2 | 465 ± 35 | 300 ± 85 | 71 ± 2 | 465 ± 35 | -2 | > 50000 | 73 ± 4 | 300 ± 85 | 465 ± 35 |  |  |  |
| COc1ccc2c(C(=O)c3cc(OC)c(OC)c(OC)c3)c(C(C)(C)C)cn2c1 [Compound 8b, [2‐(Tert‐Butyl)‐6‐Methoxyindolizin‐1‐yl](3,4,5‐Trimethoxyphenyl)Methanone] |  | 62 ± 0.5 |  |  | 46 ± 6 |  | -7 |  | 84 ± 3.2 |  |  |  |  |  |
| COc1ccc2c(C(=O)c3cc(OC)c(OC)c(OC)c3)c(C)cn2c1 [Compound 8a, (6‐methoxy‐2‐methylindolizin‐1‐yl)(3,4,5‐trimethoxyphenyl)methanone] | > 50000 | 52 ± 5 | 370 ± 28 | 325 ± 92 | 41 ± 4.3 | 410 ± 212 | 9 | > 50000 | 64 ± 2.7 | 325 ± 92 | 410 ± 212 | 370 ± 28 |  |  |
| COc1ccc2c(C(=O)c3cc(OC)c(OC)c(OC)c3)c(C(F)(F)F)cn2c1 [Compound 8e, [6‐methoxy‐2‐(trifluoromethyl)indolizin‐1‐yl](3,4,5‐trimethoxyphenyl)methanone] | > 50000 | 62 ± 2.3 | 105 ± 49 | 75 ± 21 | 53 ± 2.2 | 117 ± 32 | 8 | > 50000 | 76 ± 1.3 | 75 ± 21 | 117 ± 32 | 105 ± 49 | four‐ to sixfold decrease | none of the synthesized compounds, including 8e and 8h, showed significant activity |
| CCCc1cn2cc(OC)ccc2c1C(=O)c1cc(OC)c(OC)c(OC)c1 [Compound 8h, (6‐methoxy‐2‐propylindolizin‐1‐yl)(3,4,5‐trimethoxyphenyl)methanone] | > 50000 | 71 ± 2.8 | 90 ± 56 | 47 ± 18 | 70 ± 3.3 | 75 ± 35 | -1 | > 50000 | 90 ± 1.8 | 47 ± 18 | 75 ± 35 | 90 ± 56 | four‐ to sixfold decrease | none of the synthesized compounds, including 8e and 8h, showed significant activity |
| COc1ccc(-c2cn3cc(OC)ccc3c2C(=O)c2cc(OC)c(OC)c(OC)c2)cc1 [Compound 8k, [6‐methoxy‐2‐(4‐methoxyphenyl)indolizin‐1‐yl](3,4,5‐trimethoxyphenyl)methanone] | > 50000 | 64 ± 1.5 | 800 ± 127 | 690 ± 156 | 74 ± 2 | 880 ± 14 | 10 | > 50000 | 73 ± 4.5 | 690 ± 156 | 880 ± 14 | 800 ± 127 |  |  |
| COc1ccc2c(C(=O)c3ccc(Cl)c(Cl)c3)ccn2c1 [Compound 7e, (6‐methoxyindolizin‐1‐yl)(3,4‐dichlorophenyl)methanone] | > 50000 | 53 ± 1.8 | 14100 | 12400 | 68 ± 3.4 | 11900 | 4 | > 50000 | 70 ± 3.8 | 12400 | 11900 | 14100 |  |  |
